In ChEMBL document CHEMBL2385049, “The effects and mechanism of flavonoid-rePON1 interactions. Structure-activity relationship study” (Bioorg Med Chem, 2013):
The source made the active and inactive calls. The rule behind the calls is not given here.

Assays:
[1] = biological target: Serum paraoxonase/arylesterase 1 (Homo sapiens) (UniProt P27169); assay: Activation of recombinant paraoxonase-1 (unknown origin) expressed in Escherichia coli assessed as delaying of Cu2+-induced LDL oxidation time after 15 mins by UV ELISA
[2] = biological target: Serum paraoxonase/arylesterase 1 (Homo sapiens) (UniProt P27169); assay: Binding affinity to recombinant paraoxonase-1 (unknown origin) expressed in Escherichia coli
[3] = biological target: Serum paraoxonase/arylesterase 1 (Homo sapiens) (UniProt P27169); assay: Binding affinity to recombinant paraoxonase-1 (unknown origin) expressed in Escherichia coli after 5 mins by Trp-fluorescence quenching method

Sequence of Serum paraoxonase/arylesterase 1 (Homo sapiens) (P27169 whole entry): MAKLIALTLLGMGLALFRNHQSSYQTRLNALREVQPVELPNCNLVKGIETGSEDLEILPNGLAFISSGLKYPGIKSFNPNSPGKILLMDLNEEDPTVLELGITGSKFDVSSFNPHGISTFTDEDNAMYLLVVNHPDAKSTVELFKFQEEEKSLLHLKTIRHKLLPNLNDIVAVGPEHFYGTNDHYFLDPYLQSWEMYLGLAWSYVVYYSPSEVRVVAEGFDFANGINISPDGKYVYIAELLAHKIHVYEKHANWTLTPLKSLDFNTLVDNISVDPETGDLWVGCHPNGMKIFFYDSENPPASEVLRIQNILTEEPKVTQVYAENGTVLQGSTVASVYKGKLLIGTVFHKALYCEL

SMILES | TIME [1] [h] | Ka [2] [×10⁵ /M] | KSV [3] [×10⁵ /M] | Activity [1]
CC1(C)C=Cc2c(ccc3c2OC[C@@H](c2ccc(O)cc2O)C3)O1 | 1.33 | 2.4 | 1.93 | 
O=c1c(-c2ccc(O)cc2)coc2cc(O)ccc12 |  | 1.13 | 0.58 | 
O=c1cc(-c2ccc(O)cc2)oc2cc(O)cc(O)c12 |  | 1.13 | 1.15 | 
O=c1cc(-c2ccc(O)c(O)c2)oc2cc(O)cc(O)c12 |  | 1.33 | 1.34 | 
Oc1cc(O)c2c(c1)OC(c1ccc(O)c(O)c1)C(O)C2 (stereo not given) |  |  |  | inactive
O=c1cc(-c2ccc(O)c(O)c2)oc2cc(O)ccc12 |  | 1.07 | 0.87 | 
O=C1C[C@@H](c2ccc(O)cc2)Oc2cc(O)cc(O)c21 |  | 0.68 | 0.35 | 
O=c1c(-c2ccc(O)cc2)coc2cc(O)cc(O)c12 |  | 0.86 | 0.64 | 
O=c1c(O)c(-c2ccc(O)cc2)oc2cc(O)cc(O)c12 |  | 1.43 | 1.22 | 
O=c1cc(-c2ccc(O)cc2O)oc2ccccc12 |  | 0.75 | 0.54 | 
COc1ccc([C@@H]2CC(=O)c3c(O)cc(O)cc3O2)cc1O |  | 0.66 | 0.6 | 
O=c1c(O)c(-c2ccc(O)c(O)c2)oc2cc(O)cc(O)c12 |  | 1.28 | 1.25 | Active
